In patent US20220296623A1, “REDUCED NICOTINAMIDERIBOSIDES FOR TREATING OR PREVENTING KIDNEY DISEASE” (SOCIETE DES PRODUITS NESTLE S.A., priority 2019, published 2022):
“Also recorded” adds a separate entry of the source.

How the values were obtained:
[1] = tested on: C2C12 myotubes; test: NAD+ levels in C2C12 myotubes after NRH treatment; format: cell-based
Description: (§1) The ability of NRH to potently increase NAD+ was tested as well in other cell type models.

[2] = tested on: INS1-cells; test: NAD+ levels in INS1-cells after NRH treatment; format: cell-based
Description: as §1

[3] = tested on: NRH-induced NAD+ Synthesis; test: Intracellular NAD-related metabolites after NRH or NR treatment; format: cell-based
Text: Levels of NRH and other NAD-related metabolites in biological samples were obtained by using a cold liquid-liquid extraction using a mixture of methanol:water:chloroform in 5:3:5 (v/v), from which the polar phase was recovered for hydrophilic interaction ultra-high performance liquid chromatography mass spectrometry (UHPLC-MS) analysis. The UHPLC consisted of a binary pump, a cooled autosampler, and a column oven (DIONEX Ultimate 3000 UHPLC+ Focused, Thermo Scientific), connected to a triple quadrupole spectrometer (TSQ Vantage, Thermo Scientific) equipped with a heated electrospray ionisation (H-ESI) source. Of each sample, 2 μL were injected into the analytical column (2.1 mm×150 mm, 5 μm pore size, 200 Å HILICON iHILIC®-Fusion(P)), guarded by a pre-column (2.1 mm×20 mm, 200 Å HILICON iHILIC®-Fusion(P) Guard Kit) operating at 35° C. The mobile phase (10 mM ammonium acetate at pH 9, A, and acetonitrile, B) was pumped at 0.25 mL/min flow rate over a linear gradient of decreasing organic solvent (0.5-16 min, 90-25% B), followed by re-equilibration for a total run time of 30 min. The MS operated in positive mode at 3500 V with multiple reaction monitoring (MRM). The software Xcalibur v4.1.31.9 (Thermo Scientific) was used for instrument control, data acquisition and processing. Retention time and mass detection was confirmed by authentic standards. […]

[4] = tested on: equilibrative nucleoside transporters (ENTs); test: NRH action as NAD+ precursor under ENT blockage with NBTI; format: cell-based; conditions: in the presence of S-(4-nitrobenzyl)-6-thioinosine (NBTI)
Text: In order to understand the exact path by which NRH synthesizes NAD+, we initially evaluated whether NRH, could be transported into the cell by equilibrative nucleoside transporters (ENTs).

[5] = Stability in FBS supplemented media; format: in vitro ADME
Text: NR degradation to NAM has been proposed as a limitation for its pharmacological efficacy. To evaluate whether NRH was also susceptible to degradation to NAM, we spiked NRH or NR in isolated mouse plasma. […] We also tested the stability of NRH in other matrixes.

[6] = design: species or system mice; conditions: mouse, in vivo, po
Text: Levels of NRH and other NAD-related metabolites in biological samples were obtained by using a cold liquid-liquid extraction using a mixture of methanol:water:chloroform in 5:3:5 (v/v), from which the polar phase was recovered for hydrophilic interaction ultra-high performance liquid chromatography mass spectrometry (UHPLC-MS) analysis. The UHPLC consisted of a binary pump, a cooled autosampler, and a column oven (DIONEX Ultimate 3000 UHPLC+ Focused, Thermo Scientific), connected to a triple quadrupole spectrometer (TSQ Vantage, Thermo Scientific) equipped with a heated electrospray ionisation (H-ESI) source. Of each sample, 2 μL were injected into the analytical column (2.1 mm×150 mm, 5 μm pore size, 200 Å HILICON iHILIC®-Fusion(P)), guarded by a pre-column (2.1 mm×20 mm, 200 Å HILICON iHILIC®-Fusion(P) Guard Kit) operating at 35° C. The mobile phase (10 mM ammonium acetate at pH 9, A, and acetonitrile, B) was pumped at 0.25 mL/min flow rate over a linear gradient of decreasing organic solvent (0.5-16 min, 90-25% B), followed by re-equilibration for a total run time of 30 min. The MS operated in positive mode at 3500 V with multiple reaction monitoring (MRM). The software Xcalibur v4.1.31.9 (Thermo Scientific) was used for instrument control, data acquisition and processing. Retention time and mass detection was confirmed by authentic standards.
Oral administration of NRH led to very similar results to those observed after IP administration. […] In contrast, NR levels were undetectable at 1 h after NR administration. As expected, NR treatment led to large increases in circulating NAM, which where ˜4-fold higher than those observed after NRH treatment.

[7] = tested on: cisplatin-induced acute kidney injury; format: in vivo, C57BI/6NTac mice
Description: Simultaneously, mice were intraperitoneally injected with PBS (as vehicle) or NRH (250 mg/kg). PBS or NRH was injected at 24, 48 and 72 h after the initiation of the experiment. Kidneys of the mice were harvested, 4 h after the last injection, and NAD+ levels were analyzed in the kidney through mass spectrometry. All results are expressed as mean +/−SEM of n=5 mice per group. * indicates statistical difference at p<0.05 vs. vs. respective saline-treated mice
FIG. 7. […] Simultaneously, mice were intraperitoneally injected or not with PBS (as vehicle) or NRH (250 mg/kg) at 24, 48 and 72 h after the initiation of the experiment. Mice were sacrificed 4 h after the last injection, and plasma was collected to measure blood urea nitrogen levels. All results are expressed as mean +/−SEM of n=5 mice per group. * indicates statistical difference at p<0.05 vs. vs. respective saline-treated mice
Simultaneously, mice were intraperitoneally injected or not with PBS (as vehicle) or NRH (250 mg/kg). Urine was collected 24 h later to evaluate urea levels by NMR. All results are expressed as mean +/−SEM of n=5 mice per group. * indicates statistical difference at p<0.05 vs. vs. respective saline-treated mice.
Simultaneously, mice were intraperitoneally injected or not with PBS (as vehicle) or NRH (250 mg/kg). PBS or NRH were then injected at 24, 48 and 72 h after the initiation of the experiment. Mice were sacrificed 4 h after the last injection, and kidneys were fixed in OCT and used for immunohistochemistry against cleaved caspase 3. The cleaved caspase 3 staining was then quantified against the total area, using 10 images per mouse, 5 mice per group. All results are expressed as mean +/−SEM. * indicates statistical difference at p<0.05 vs. vs. respective saline-treated mice.
Simultaneously, mice were intraperitoneally injected or not with PBS (as vehicle) or NRH (250 mg/kg). PBS or NRH were then injected at 24, 48 and 72 h after the initiation of the experiment. 4 h after the last injection, and kidneys were obtained to isolate mRNA and analyze by qPCR makers of renal dysfunction (TGF-b1), glomerular dysfunction (fibronectin), apoptosis (BAX) and ER stress (BIP). All values are expressed as mean +/−SEM of n=4 mice per group. * indicates statistical difference at p<0.05 vs. respective vehicle-injected mice. # indicates statistical difference at p<0.05 vs. the respective mice in the control group.
Kidneys were harvested 4 hrs after the last NRH injection.

[8] = cisplatin 20 mg/kg, NRH 250 mg/kg
[9] = kidney qPCR, cisplatin plus NRH

NC(=O)C1=CN([C@@H]2O[C@H](CO)[C@@H](O)[C@H]2O)C=CC1 [NRH, dihydro-1-beta-D-ribofuranosyl-3-pyridinecarboxamide]
NAD+ levels [1]: highly elevated NAD+ levels | NAD+ levels [2]: highly elevated NAD+ levels | intracellular detection of NRH and NMNH ([3]; 5 minutes after treatment): could be detected intracellularly | intracellular NR and NMN ([3]; after treatment, compared with NR): increase in intracellular NR and NMN, greater than that triggered by NR itself | capacity as extracellular NAD+ precursor under ENT blockage [4]: largely lost its capacity as an extracellular NAD+ precursor; also recorded: a substantial action of NRH remained | degradation to NAM in FBS supplemented media [5]: did not degrade to NAM | NRH concentration in plasma [6]: 11.16 ± 1.74 µM | administered compound in plasma [6]: detectable in plasma | NAD+ levels in kidney above control ([7]; 4 h after NRH supplementation): did not observe higher NAD^+ levels | renal NADH levels ([7]; cisplatin 20 mg/kg IP, NRH 250 mg/kg IP at 0, 24, 48, 72 h, kidneys 4 h after last injection): prevented the drop in renal NAD^+ and NADH levels | Me2PY and Me4PY levels in urine [7, 8]: further increased | methyl-NAM levels in kidney [7, 8]: further increased methyl-NAM levels in kidney | PARP activity ([7]; cisplatin mice treated with NRH): higher | kidney structure (tubular necrosis, glomeruli dilatation, inflammation, cast formation) ([7]; histology, cisplatin 20 mg/kg, NRH 250 mg/kg): largely prevented | presence of kidney casts ([7]; histology, cisplatin plus NRH): major decrease in the presence of kidney casts | renal cell apoptosis (cleaved caspase 3 staining) ([7]; kidney immunohistochemistry, cisplatin plus NRH (FIG. 9)): protects against cisplatin-induced renal cell apoptosis | BAX mRNA (marker of apoptosis) [7, 9]: prevented cisplatin-induced increases | BIP mRNA (marker of ER stress) [7, 9]: prevented cisplatin-induced increases | TGF-β1 expression [7, 9]: prevent the increase in TGF-β1 expression | fibronectin mRNA (marker of glomerular dysfunction) [7, 9]: prevented cisplatin-induced increases
